What was measured:
[1] = test system: LS174T xenografts; test: Dual isotope biodistribution with different amounts of clearing agent 12 (Example 6); assay type: in vivo, mice
Description: (§1) LS174T tumor model. The human colon cancer cell line LS174T was obtained from the ATCC and maintained in Eagle's minimal essential medium (Sigma) supplemented with 10% heat inactivated fetal calf serum (Gibco), penicillin (100 U/mL), streptomycin (100 μg/mL) and […] Glutamax. Nude female Balb/C mice (20-25 g body weight, Charles River Laboratories) were inoculated subcutaneously with 5×10^6 cells in 100 μL sterile PBS.
Nude female mice (n=3-4) bearing LS174T xenografts (0.32±0.16 g) were injected ^125I-CC49-TCO (t=0, 100 μg/100 μl per mouse) followed by 20-200 μg galactose-MSA-tetrazine (12) dissolved in 100 μl saline solution (t=24 hours) and ^111In-labeled 15 (21.3 μg/75 μl per mouse, t=26 hours). At 29 hours post mAb injection, the mice were sacrificed, blood was withdrawn by heart puncture and selected organs and tissues were harvested and blotted dry. The blood samples and tissues were weighed, added with 1 mL PBS and the radioactivity was counted in a gamma counter along with standards to determine the % ID/g (Table 1).

[2] = without clearing agent, 21.3 μg tetrazine/mouse 24 hours post mAb injection; cited from earlier work
[3] = test system: LS174T xenografts; test: Biodistribution with single and repeated dose of clearing agent 12 (Example 7); assay type: in vivo, mice
Description: as §1
Nude female mice (n=4-6) bearing LS174T xenografts (0.38±0.23 g) were injected ^125I-CC49-TCO (t=0, 100 μg/100 μl per mouse) followed by (a) one 160 μg/100 μl dose of galactose-MSA-tetrazine (12) 48 hours post mAb injection, or (b) two 160 μg/100 μl 12 doses 46 and 48 hours post mAb injection, or (c) two 160 μg/100 μl 12 doses 28 and 48 hours post mAb injection. At 50 hours post mAb injection, the mice received 8.52 μg ^111In-tetrazine and were then sacrificed three hours later, blood was withdrawn by heart puncture and selected organs and tissues were harvested and blotted dry. The blood samples and tissues were weighed, added with 1 mL PBS and the radioactivity was counted in a gamma counter along with standards to determine the % ID/g. The biodistribution data of ^125I-CC49-TCO and ^111In-tetrazine are shown in Table 2 and the ^111In-tetrazine T/organ values are shown in Table 3.

[4] = One dose (a): 12 at 48 h post mAb
[5] = Two doses (b): 12 at 46 and 48 h
[6] = Two doses (c): 12 at 28 and 48 h

^111In-tetrazine T/B ([1]; 12 dose 20 μg/mouse): 4.5 ± 0.5
^111In-tetrazine Tumor ([1]; 12 dose 20 μg/mouse): 3.7 ± 0.8 % ID/g
^111In-tetrazine T/B ([1]; 12 dose 45 μg/mouse): 4.8 ± 0.3
^111In-tetrazine Tumor ([1]; 12 dose 45 μg/mouse): 4.1 ± 1.3 % ID/g
^111In-tetrazine T/B ([1]; 12 dose 80 μg/mouse): 9.2 ± 1.6
^111In-tetrazine Tumor ([1]; 12 dose 80 μg/mouse): 3.8 ± 1.1 % ID/g
^111In-tetrazine T/B ([1]; 12 dose 120 μg/mouse): 11.5 ± 4.2
^111In-tetrazine Tumor ([1]; 12 dose 120 μg/mouse): 3.0 ± 0.8 % ID/g
^111In-tetrazine T/B ([1]; 12 dose 160 μg/mouse): 31.6 ± 10.5
^111In-tetrazine Tumor ([1]; 12 dose 160 μg/mouse): 5.1 ± 1.4 % ID/g
^111In-tetrazine T/B ([1]; 12 dose 200 μg/mouse): 19.2 ± 3.0
^111In-tetrazine Tumor ([1]; 12 dose 200 μg/mouse): 3.6 ± 0.9 % ID/g
^111In-tetrazine T/organ blood [3, 4]: 8.2±4.1
^111In-tetrazine T/organ bone [3, 4]: 10.5 ± 6.5
^111In-tetrazine T/organ brain [3, 4]: 148.05 ± 61.18
^111In-tetrazine T/organ heart [3, 4]: 6.7 ± 1.3
^111In-tetrazine T/organ kidney [3, 4]: 2.8 ± 0.3
^111In-tetrazine T/organ liver [3, 4]: 10.9 ± 1.7
^111In-tetrazine T/organ lung [3, 4]: 3.1 ± 0.5
^111In-tetrazine T/organ muscle [3, 4]: 9.2±3.6
^111In-tetrazine T/organ spleen [3, 4]: 11.3 ± 3.3
^111In-tetrazine in blood [3, 4]: 0.40 ± 0.10 % ID/g
^111In-tetrazine in bone [3, 4]: 0.33 ± 0.12 % ID/g
^111In-tetrazine in brain [3, 4]: 0.02 ± 0.00 % ID/g
^111In-tetrazine in heart [3, 4]: 0.45 ± 0.08 % ID/g
^111In-tetrazine in kidney [3, 4]: 1.07 ± 0.10 % ID/g
^111In-tetrazine in liver [3, 4]: 0.27 ± 0.04 % ID/g
^111In-tetrazine in lung [3, 4]: 0.97 ± 0.17 % ID/g
^111In-tetrazine in muscle [3, 4]: 0.35 ± 0.08 % ID/g
^111In-tetrazine in spleen [3, 4]: 0.27 ± 0.04 % ID/g
^111In-tetrazine in tumor [3, 4]: 2.98 ± 0.51 % ID/g
^111In-tetrazine T/organ blood [3, 5]: 15.2 ± 4.1
^111In-tetrazine T/organ bone [3, 5]: 16.7 ± 6.7
^111In-tetrazine T/organ brain [3, 5]: 222.2 ± 73.6
^111In-tetrazine T/organ heart [3, 5]: 25.6 ± 12.0
^111In-tetrazine T/organ kidney [3, 5]: 1.6 ± 0.6
^111In-tetrazine T/organ liver [3, 5]: 11.5 ± 3.7
^111In-tetrazine T/organ lung [3, 5]: 8.5 ± 4.2
^111In-tetrazine T/organ muscle [3, 5]: 19.3 ± 9.2
^111In-tetrazine T/organ spleen [3, 5]: 15.1 ± 4.9
^111In-tetrazine in blood [3, 5]: 0.10 ± 0.02 % ID/g
^111In-tetrazine in bone [3, 5]: 0.10 ± 0.02 % ID/g
^111In-tetrazine in brain [3, 5]: 0.01 ± 0.00 % ID/g
^111In-tetrazine in heart [3, 5]: 0.07 ± 0.02 % ID/g
^111In-tetrazine in kidney [3, 5]: 0.95 ± 0.06 % ID/g
^111In-tetrazine in liver [3, 5]: 0.13 ± 0.01 % ID/g
^111In-tetrazine in lung [3, 5]: 0.20 ± 0.07 % ID/g
^111In-tetrazine in muscle [3, 5]: 0.09 ± 0.03 % ID/g
^111In-tetrazine in spleen [3, 5]: 0.10 ± 0.00 % ID/g
^111In-tetrazine in tumor [3, 5]: 1.52 ± 0.48 % ID/g
^111In-tetrazine T/organ blood [3, 6]: 89.0±14.3
^111In-tetrazine T/organ bone [3, 6]: 93.5 ± 19.7
^111In-tetrazine T/organ brain [3, 6]: 750.2 ± 87.5
^111In-tetrazine T/organ heart [3, 6]: 82.9 ± 21.3
^111In-tetrazine T/organ kidney [3, 6]: 3.7 ± 0.8
^111In-tetrazine T/organ liver [3, 6]: 32.3 ± 5.9
^111In-tetrazine T/organ lung [3, 6]: 27.9 ± 7.0
^111In-tetrazine T/organ muscle [3, 6]: 146.3±30.3
^111In-tetrazine T/organ spleen [3, 6]: 42.4 ± 7.7
^111In-tetrazine in blood [3, 6]: 0.05 ± 0.00 % ID/g
^111In-tetrazine in bone [3, 6]: 0.05 ± 0.01 % ID/g
^111In-tetrazine in brain [3, 6]: 0.01 ± 0.00 % ID/g
^111In-tetrazine in heart [3, 6]: 0.05 ± 0.01 % ID/g
^111In-tetrazine in kidney [3, 6]: 1.18 ± 0.13 % ID/g
^111In-tetrazine in liver [3, 6]: 0.13 ± 0.01 % ID/g
^111In-tetrazine in lung [3, 6]: 0.16 ± 0.03 % ID/g
^111In-tetrazine in muscle [3, 6]: 0.03 ± 0.00 % ID/g
^111In-tetrazine in spleen [3, 6]: 0.10 ± 0.01 % ID/g
^111In-tetrazine in tumor [3, 6]: 4.30 ± 0.50 % ID/g
Compound: O=C([O-])CN1CCN(CC(=O)[O-])CCN(CC(=O)NCCOCCOCCOCCOCCOCCOCCOCCOCCOCCOCCOCCNC(=O)CCCC(=O)Nc2ccc(-c3nnc(-c4ccccn4)nn3)nc2)CCN(CC(=O)[O-])CC1.[111In+3] [^111In-tetrazine]
T/blood ratio [2]: 2.2±0.5
